Assay results taken from PMC11294694, “Dissecting the abilities of murine Siglecs to interact with gangliosides [drawing 1]” (The Journal of Biological Chemistry, 2024).

Assays:
mSiglec-1 [1] = target: T1, mSiglec-1 (Mus musculus, UniProt Q62230); assay: direct ESI native mass spectrometry titration (no binding in liposome bead assay or ELISA)
T1 construct: gene Siglec1; monomeric Siglec-1 fragment from CHO Lec1 cells

hSiglec-1 = target: T2, hSiglec-1 (Homo sapiens, UniProt Q9BZZ2); assay: direct ESI native mass spectrometry titration; type: binding
T2 construct: gene SIGLEC1; monomeric Siglec-1 fragment from CHO Lec1 cells
T2 sequence (Q9BZZ2 20-136 limits assumed): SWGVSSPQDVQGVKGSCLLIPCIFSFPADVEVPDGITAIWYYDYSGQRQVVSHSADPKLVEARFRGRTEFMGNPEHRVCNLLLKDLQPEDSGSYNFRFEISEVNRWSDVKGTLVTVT

mSiglec-1 [2] = target: T1, mSiglec-1; assay: direct ESI native mass spectrometry titration; type: binding

T1 sequence (Q62230 20-136 limits assumed): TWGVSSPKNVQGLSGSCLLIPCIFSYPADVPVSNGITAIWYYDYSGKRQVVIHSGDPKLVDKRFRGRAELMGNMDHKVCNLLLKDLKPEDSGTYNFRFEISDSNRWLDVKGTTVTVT

GM1a oligosaccharide showed a Kd (mSiglec-1 [1]) of 2000 µM and a Kd (hSiglec-1) of 1500 µM.
Substance GM1b oligosaccharide has a Kd (mSiglec-1 [2]) of 1200 µM and a Kd (hSiglec-1) of 890 µM.
